Data reported in ChEMBL document CHEMBL4138086, “Design and synthesis of bis(indolyl)ketohydrazide-hydrazones: Identification of potent and selective novel tubulin inhibitors” (Eur J Med Chem, 2017).
The source made the active and inactive calls. The calls are words filed in the database; no cut-off is given here.

What was measured:
P388 = assay: Cytotoxicity against mouse P388 cells assessed as reduction in cell viability; format: functional, cell-based
[1] = molecular target: Receptor tyrosine-protein kinase erbB-2 (Homo sapiens, UniProt P04626); assay: Inhibition of c-erbbeta2 (unknown origin)
Sequence of Receptor tyrosine-protein kinase erbB-2 (P04626 whole entry): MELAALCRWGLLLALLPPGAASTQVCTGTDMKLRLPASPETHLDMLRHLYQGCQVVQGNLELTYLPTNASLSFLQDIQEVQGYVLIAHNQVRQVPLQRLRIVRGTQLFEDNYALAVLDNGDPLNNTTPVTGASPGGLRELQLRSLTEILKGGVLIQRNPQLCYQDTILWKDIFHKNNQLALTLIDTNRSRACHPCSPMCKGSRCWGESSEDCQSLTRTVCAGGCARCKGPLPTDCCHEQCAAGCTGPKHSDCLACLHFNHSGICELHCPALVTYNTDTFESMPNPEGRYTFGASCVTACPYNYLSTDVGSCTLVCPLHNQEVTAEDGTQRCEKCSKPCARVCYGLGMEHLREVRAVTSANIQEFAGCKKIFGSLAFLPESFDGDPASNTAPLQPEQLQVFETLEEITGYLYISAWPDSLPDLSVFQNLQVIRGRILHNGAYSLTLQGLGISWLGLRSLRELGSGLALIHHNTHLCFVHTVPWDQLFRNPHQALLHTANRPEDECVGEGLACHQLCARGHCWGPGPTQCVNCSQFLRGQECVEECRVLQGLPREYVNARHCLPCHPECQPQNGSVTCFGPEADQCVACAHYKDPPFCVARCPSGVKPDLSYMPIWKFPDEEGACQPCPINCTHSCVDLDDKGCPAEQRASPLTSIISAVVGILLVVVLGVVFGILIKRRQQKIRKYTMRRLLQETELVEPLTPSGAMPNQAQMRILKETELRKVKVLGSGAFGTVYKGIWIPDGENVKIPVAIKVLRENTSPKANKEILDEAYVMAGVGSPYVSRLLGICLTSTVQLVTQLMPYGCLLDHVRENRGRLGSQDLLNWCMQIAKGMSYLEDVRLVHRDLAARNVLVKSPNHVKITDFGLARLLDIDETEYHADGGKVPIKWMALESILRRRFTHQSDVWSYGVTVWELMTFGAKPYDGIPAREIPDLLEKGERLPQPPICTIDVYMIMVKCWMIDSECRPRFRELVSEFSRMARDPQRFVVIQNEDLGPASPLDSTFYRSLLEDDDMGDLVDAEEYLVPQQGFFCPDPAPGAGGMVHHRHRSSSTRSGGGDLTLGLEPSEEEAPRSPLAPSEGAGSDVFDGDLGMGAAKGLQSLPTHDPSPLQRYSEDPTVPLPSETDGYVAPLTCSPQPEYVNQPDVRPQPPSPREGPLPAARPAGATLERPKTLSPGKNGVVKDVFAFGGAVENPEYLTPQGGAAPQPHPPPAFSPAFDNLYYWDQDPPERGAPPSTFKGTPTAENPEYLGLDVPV

[2] = molecular target: Cyclin-dependent kinase 4 (Homo sapiens, UniProt P11802); assay: Inhibition of CDK4 (unknown origin)
Sequence of Cyclin-dependent kinase 4 (P11802 whole entry): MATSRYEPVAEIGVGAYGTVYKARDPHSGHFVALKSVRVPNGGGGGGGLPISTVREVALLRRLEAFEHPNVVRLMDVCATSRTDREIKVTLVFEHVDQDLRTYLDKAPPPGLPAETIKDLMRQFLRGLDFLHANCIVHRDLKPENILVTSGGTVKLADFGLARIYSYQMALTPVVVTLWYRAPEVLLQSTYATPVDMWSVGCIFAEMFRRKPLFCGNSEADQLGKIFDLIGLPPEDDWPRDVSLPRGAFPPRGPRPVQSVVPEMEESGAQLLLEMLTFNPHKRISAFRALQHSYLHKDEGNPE

MCF7 [3] = assay: Cytotoxicity against human MCF7 cells assessed as cell survival at 10 uM after 48 hrs by MTT assay relative to control; format: functional; conditions: MCF7, 48 h, read-out: Survival
BT-474 [4] = assay: Cytotoxicity against human BT474 cells assessed as cell survival at 10 uM after 48 hrs by MTT assay relative to control; format: functional; conditions: BT-474, 48 h, read-out: Survival
MDA-MB-231 [5] = assay: Cytotoxicity against human MDA-MB-231 cells assessed as cell survival at 10 uM after 48 hrs by MTT assay relative to control; format: functional; conditions: MDA-MB-231, 48 h, read-out: Survival
HCT-116 [6] = assay: Cytotoxicity against human HCT116 cells assessed as cell survival at 10 uM after 48 hrs by MTT assay relative to control; format: functional; conditions: HCT-116, 48 h, read-out: Survival
Jurkat [7] = assay: Cytotoxicity against human Jurkat cells assessed as cell survival at 10 uM after 48 hrs by MTT assay relative to control; format: functional; conditions: read-out: Survival
MCF7 [8] = assay: Toxicity in human MCF7 cells at 20 uM after 40 hrs by LDH assay; format: cell-based; conditions: mcf7, 40 h
HCT-116 [9] = assay: Toxicity in human HCT116 cells at 20 uM after 40 hrs by LDH assay; format: cell-based; conditions: hct-116, 40 h
MDA-MB-231 [10] = assay: Cytotoxicity against human MDA-MB-231 cells assessed as reduction in cell survival after 48 hrs by MTT assay; format: functional, cell-based; conditions: MDA-MB-231, 48 h
Sus scrofa [11] = organism: Sus scrofa; assay: Inhibition of porcine brain tubulin polymerization at 3.2 uM incubated for 5 mins by fluorimetry
Jurkat [12] = assay: Cytotoxicity against human Jurkat cells assessed as reduction in cell survival after 48 hrs by MTT assay; format: functional, cell-based
BT-474 [13] = assay: Cytotoxicity against human BT474 cells assessed as reduction in cell survival after 48 hrs by MTT assay; format: functional, cell-based; conditions: BT-474, 48 h
Jurkat [14] = assay: Toxicity in human Jurkat cells at 20 uM after 40 hrs by LDH assay; format: cell-based
HCT-116 [15] = assay: Cytotoxicity against human HCT116 cells assessed as reduction in cell survival after 48 hrs by MTT assay; format: functional, cell-based; conditions: HCT-116, 48 h
BT-474 [16] = assay: Toxicity in human BT474 cells at 20 uM after 40 hrs by LDH assay; format: cell-based; conditions: bt-474, 40 h
Jurkat [17] = assay: Induction of apoptosis in human Jurkat cells increase in caspase 3/7 activity at 1 uM measured up to 180 mins by fluorescence assay relative to control; format: functional
Sus scrofa [18] = organism: Sus scrofa; assay: (§1) Inhibition of porcine brain tubulin polymerization incubated for 5 mins by fluorimetry
MCF7 [19] = assay: Cytotoxicity against human MCF7 cells assessed as reduction in cell survival after 48 hrs by MTT assay; format: functional, cell-based; conditions: MCF7, 48 h
MDA-MB-231 [20] = assay: Toxicity in human MDA-MB-231 cells at 20 uM after 40 hrs by LDH assay; format: cell-based; conditions: mda-mb-231, 40 h
DU-145 = assay: Cytotoxicity against human DU145 cells assessed as reduction in cell viability; format: functional, cell-based
A549 = assay: Cytotoxicity against human A549 cells assessed as reduction in cell viability; format: functional, cell-based
HCT-8 = assay: Cytotoxicity against human HCT8 cells assessed as reduction in cell viability; format: functional, cell-based
MDA-MB-231 [21] = assay: Cytotoxicity against human MDA-MB-231 cells assessed as reduction in cell viability; format: functional, cell-based
[22] = as §1; set-up: species or system Sus scrofa
Capra hircus = organism: Capra hircus; assay: Inhibition of colchicine binding to goat brain tubulin pre-incubated for 20 mins before colchine addition and measured after 45 mins by fluorescence based assay
MCF7 [23] = assay: Cell cycle arrest in human MCF7 cells assessed as G2/M phase accumulation at 3 uM after […] by propidium iodide staining based flow cytometry; format: functional
Sus scrofa [24] = organism: Sus scrofa; assay: Inhibition of porcine brain tubulin polymerization at 0.6 uM incubated for 5 mins by fluorimetry

Row | SMILES | viability at 10 µM (MCF7 [3]) [%] | viability at 10 µM (BT-474 [4]) [%] | viability at 10 µM (MDA-MB-231 [5]) [%] | viability at 10 µM (HCT-116 [6]) [%] | viability at 10 µM (Jurkat [7]) [%] | further results
1 | Brc1ccc2c(-c3c[nH]c(-c4c[nH]c5cc(Br)ccc45)n3)c[nH]c2c1 [NORTOPSENTIN A] | – | – | – | – | – | IC50 (P388): 4.5 to 20.7 µM
2 | O=C1N=C(C(=O)c2c[nH]c3ccccc23)N/C1=C\c1c[nH]c2cc(O)ccc12 | – | – | – | – | – | IC50 [1]: 7.4 µM; IC50 [2]: 12.5 µM
3 | O=C(N/N=C/c1c[nH]c2cc(F)ccc12)C(=O)c1c[nH]c2ccccc12 | 40.2 | 88.2 | 106 | 104 | 69.9 | –
4 | COc1ccc(/C=N/NC(=O)C(=O)c2c[nH]c3ccccc23)cc1OC | 99.8 | 103 | 94.6 | 92.8 | 78.9 | –
5 | O=C(N/N=C/c1c[nH]c2ccc(F)cc12)C(=O)c1c[nH]c2ccccc12 | 105 | 112 | 102 | 85.1 | 56.7 | –
6 | COc1ccc2c(c1)c(/C=N/NC(=O)C(=O)c1c[nH]c3ccc(Br)cc13)cn2Cc1ccc(Cl)cc1 | 96.1 | 99.1 | 103 | 86.1 | 46.6 | –
7 | COc1ccc2[nH]cc(/C=N/NC(=O)C(=O)c3cn(Cc4ccc(Cl)cc4)c4ccccc34)c2c1 | 33.7 | 21.2 | 29.4 | 38.2 | 36.1 | Activity (MCF7 [8]): 20 to 25%; Activity (HCT-116 [9]): 20 to 25%; IC50 (MDA-MB-231 [10]): 2.9 µM; inhibition (Sus scrofa [11]): 50%; IC50 (Jurkat [12]): 3.6 µM; IC50 (BT-474 [13]): 2.7 µM; Activity (Jurkat [14]): 20 to 25%; IC50 (HCT-116 [15]): 4.2 µM; Activity (BT-474 [16]): 20 to 25%; fold change (FC) (Jurkat [17]): 2 - 5; inhibition (Sus scrofa [18]): Dose-dependent effect; IC50 (MCF7 [19]): 3.8 µM; Activity (MDA-MB-231 [20]): 20 to 25%
8 | Cn1c(-c2cn(C)c3ccccc23)cnc1-c1cn(C)c2cc(Br)ccc12 [N-METHYL NORTOPSENTIN B] | – | – | – | – | – | IC50 (P388): 4.5 to 20.7 µM
9 | COc1cccc2c1C(=O)c1c(O)c3c(c(O)c1C2=O)C[C@@](O)(C(=O)CO)C[C@@H]3O[C@H]1C[C@H](N)[C@H](O)[C@H](C)O1 [DOXORUBICIN] | 27 | 17.6 | 22.5 | 25 | 21 | IC50 (MDA-MB-231 [10]): 0.55 µM; IC50 (Jurkat [12]): 0.26 µM; IC50 (BT-474 [13]): 0.3 µM
10 | COc1cc(/C=N/NC(=O)C(=O)c2c[nH]c3ccccc23)cc(OC)c1OC | 110 | 101 | 103 | 99.1 | 69.6 | –
11 | COc1ccc(Cn2cc(/C=N/NC(=O)C(=O)c3c[nH]c4ccc(Br)cc34)c3cc(OC)ccc32)cc1 | 112 | 91.1 | 102 | 65.7 | 81.9 | –
12 | O=C(N/N=C/c1c[nH]c2cc(Br)ccc12)C(=O)c1c[nH]c2ccccc12 | 92.7 | 86.8 | 95.1 | 94.5 | 75.4 | –
13 | O=C(N/N=C/c1ccncc1)C(=O)c1cn(Cc2ccc(Cl)cc2)c2ccccc12 | 82.2 | 78.7 | 71.2 | 69.1 | 66.7 | –
14 | O=C(N/N=C/c1cn(Cc2ccc(Cl)cc2)c2ccc(Br)cc12)C(=O)c1c[nH]c2ccccc12 | 107 | 94.7 | 88.8 | 72.6 | 93.2 | –
15 | COc1ccc2[nH]cc(/C=N/NC(=O)C(=O)c3c[nH]c4ccccc34)c2c1 | 17.2 | 20.3 | 21.6 | 17.6 | 19.3 | IC50 (MDA-MB-231 [10]): 1.7 µM; IC50 (Jurkat [12]): 0.5 µM; IC50 (BT-474 [13]): 1.1 µM; IC50 (HCT-116 [15]): 0.4 µM; fold change (FC) (Jurkat [17]): 2 - 5; IC50 (MCF7 [19]): 1.8 µM
16 | O=C(N/N=C/c1c[nH]c2ccc(Br)cc12)C(=O)c1c[nH]c2ccccc12 | 35 | 82.4 | 34 | 26.3 | 25.5 | IC50 (MDA-MB-231 [10]): 5.6 µM; IC50 (Jurkat [12]): 5 µM; IC50 (HCT-116 [15]): 6.6 µM; fold change (FC) (Jurkat [17]): 2 - 5; IC50 (MCF7 [19]): 3.3 µM
17 | O=C(N/C=C/c1c[nH]c2ccccc12)C(=O)c1c[nH]c2ccccc12 | – | – | – | – | – | IC50 (DU-145): 7.6 µM
18 | O=C(N/N=C/c1c[nH]c2cc(F)ccc12)C(=O)c1c[nH]c2ccc(Br)cc12 | 97.5 | 94.8 | 111 | 84.2 | 95.8 | –
19 | O=C(N/N=C/c1c[nH]c2ccccc12)C(=O)c1c[nH]c2ccccc12 | 99.2 | 83 | 98.6 | 88.4 | 33.6 | –
20 | CN1CC(c2c[nH]c3cc(Br)ccc23)N(C)CC1c1c[nH]c2cc(Br)ccc12 (centres undefined) | – | – | – | – | – | IC50 (A549): 1 to 10 µM; IC50 (HCT-8): 1 to 10 µM; IC50 (P388): 15 µM; IC50 (MDA-MB-231 [21]): 1 to 10 µM
21 | COc1cccc(/C=N/NC(=O)C(=O)c2c[nH]c3ccccc23)c1 | 96.8 | 95.1 | 97.2 | 72.4 | 59.7 | –
22 | Brc1ccc2c(-c3c[nH]c(-c4c[nH]c5ccccc45)n3)c[nH]c2c1 [NORTOPSENTIN C] | – | – | – | – | – | IC50 (P388): 4.5 to 20.7 µM
23 | COc1ccc2c(/C=N/NC(=O)C(=O)c3c[nH]c4ccccc34)c[nH]c2c1 | 34.6 | 95.6 | 103 | 38.8 | 52.1 | IC50 (Jurkat [12]): 10 µM; IC50 (HCT-116 [15]): 2.5 µM; IC50 (MCF7 [19]): 6.1 µM
24 | O=C(N/C=C/c1c[nH]c2ccc(Br)cc12)C(=O)c1c[nH]c2c(O)cccc12 | – | – | – | – | – | IC50 (DU-145): 7.6 µM
25 | O=C(N/C=C/c1c[nH]c2cc(Br)ccc12)C(=O)c1c[nH]c2ccccc12 | – | – | – | – | – | IC50 (DU-145): 7.6 µM
26 | O=C(Nc1ccncc1)C(=O)c1cn(Cc2ccc(Cl)cc2)c2ccccc12 [INDIBULIN] | – | – | – | – | – | IC50 (MCF7 [19]): 1.1 µM
27 | O=C(N/N=C/c1c[nH]c2ccccc12)C(=O)c1cn(Cc2ccc(Cl)cc2)c2ccccc12 | 15 | 22.5 | 17.1 | 13.3 | 20.6 | Activity (MCF7 [8]): 20 to 25%; Activity (HCT-116 [9]): 20 to 25%; IC50 (MDA-MB-231 [10]): 0.5 µM; IC50 (Jurkat [12]): 0.22 µM; IC50 (BT-474 [13]): 2.1 µM; Activity (Jurkat [14]): 20 to 25%; IC50 (HCT-116 [15]): 0.15 µM; Activity (BT-474 [16]): 20 to 25%; fold change (FC) (Jurkat [17]): 2 - 5; inhibition (Sus scrofa [18]): Dose-dependent effect; IC50 [22]: 0.6 µM; inhibition (Capra hircus): Dose-dependent effect; IC50 (MCF7 [19]): 0.8 µM; Activity (MCF7 [23]): Active; Activity (MDA-MB-231 [20]): 20 to 25%; inhibition (Sus scrofa [24]): 50%
28 | COc1ccc(-c2[nH]c3ccccc3c2/C=N/NC(=O)C(=O)c2c[nH]c3ccccc23)cc1 | 107 | 94.2 | 98.8 | 71.8 | 81.6 | –
29 | COc1ccc2c(/C=N/NC(=O)C(=O)c3c[nH]c4ccc(Br)cc34)c[nH]c2c1 | 91.4 | 92 | 112 | 71.4 | 74.1 | –
30 | COc1ccc(/C=N/NC(=O)C(=O)c2c[nH]c3ccccc23)cc1 | 106 | 97.5 | 102 | 101 | 61.9 | –
